Calls of active or inactive are those of the source. The rule behind the calls is not given here.
Key:
[1] = Antiproliferative activity against human KB-7d cells expressing MRP after 72 hrs by methylene blue assay; assay type: functional, cell-based; details: KB7D
[2] = test system: HT-29; experiment: Antiproliferative activity against human HT-29 cells after 72 hrs by methylene blue assay; assay type: functional, cell-based
[3] = test system: KB; experiment: Antiproliferative activity against human KB cells after 72 hrs by methylene blue assay; assay type: functional, cell-based
[4] = Antiproliferative activity against human MKN45 cells after 72 hrs by methylene blue assay; assay type: functional, cell-based; details: MKN-45, 72 h
[5] = Toxicity in HUVEC assessed as cell viability at 20 nM after 4 hrs relative to control; assay type: cell-based; details: human, HUVEC cells; read-out: Activity
[6] = test system: HUVEC; experiment: Antivascular activity in HUVEC assessed as inhibition of VEGF-induced capillary tube formation at 20 nM after 4 hrs by microscopic analysis relative to control; assay type: functional, Homo sapiens; parameters: scale not given: the % may be the effect or the level left
[7] = Antiproliferative activity against human KB-S15 cells expressing P-gp170/MDR after 72 hrs by methylene blue assay; assay type: functional, cell-based; details: KB-S15, 72 h
[8] = Toxicity in HUVEC assessed as cell viability at 500 nM after 4 hrs relative to control; assay type: cell-based; details: human, HUVEC cells; read-out: Activity
[9] = Toxicity in HUVEC assessed as cell viability at 50 nM after 4 hrs relative to control; assay type: cell-based; details: human, HUVEC cells; read-out: Activity
[10] = Toxicity in HUVEC assessed as cell viability at 2500 nM after 4 hrs relative to control; assay type: cell-based; details: human, HUVEC cells; read-out: Activity
[11] = Antiproliferative activity against human KB-VIN10 cells expressing P-gp170/MDR after 72 hrs by methylene blue assay; assay type: functional, cell-based; details: KB-VIN10, 72 h
[12] = test system: HUVEC; experiment: Antivascular activity in HUVEC assessed as inhibition of VEGF-induced capillary tube formation at 500 nM after 4 hrs by microscopic analysis relative to control; assay type: functional, Homo sapiens; parameters: scale not given: the % may be the effect or the level left
[13] = biological target: Tubulin (Homo sapiens) (UniProt P68371+Q9H4B7+P0DPH7+P68366+Q13509+Q71U36+P04350+Q3ZCM7+P07437+P68363+Q9BQE3+Q6PEY2+Q13885+Q9BVA1+Q9BUF5); experiment: Displacement of 1 uM of [3H]colchicine from biotin-labeled tubulin (unknown origin) after 2 hrs by scintillation proximity assay; assay type: protein-complex assay
[14] = biological target: Tubulin (Bos taurus, UniProt Q6B856+Q862F3); experiment: Inhibition of bovine brain tubulin polymerization after 30 mins
[15] = test system: HUVEC; experiment: Antivascular activity in HUVEC assessed as inhibition of VEGF-induced capillary tube formation at 2500 nM after 4 hrs by microscopic analysis relative to control; assay type: functional, Homo sapiens; parameters: scale not given: the % may be the effect or the level left
[16] = test system: HUVEC; experiment: Antivascular activity in HUVEC assessed as inhibition of VEGF-induced capillary tube formation at 100 nM after 4 hrs by microscopic analysis relative to control; assay type: functional, Homo sapiens; parameters: scale not given: the % may be the effect or the level left
[17] = Toxicity in HUVEC assessed as cell viability at 100 nM after 4 hrs relative to control; assay type: cell-based; details: human, HUVEC cells; read-out: Activity
[18] = test system: HUVEC; experiment: Antivascular activity in HUVEC assessed as inhibition of VEGF-induced capillary tube formation at 50 nM after 4 hrs by microscopic analysis relative to control; assay type: functional, Homo sapiens; parameters: scale not given: the % may be the effect or the level left

Tubulin, sequence (Q6B856 whole entry): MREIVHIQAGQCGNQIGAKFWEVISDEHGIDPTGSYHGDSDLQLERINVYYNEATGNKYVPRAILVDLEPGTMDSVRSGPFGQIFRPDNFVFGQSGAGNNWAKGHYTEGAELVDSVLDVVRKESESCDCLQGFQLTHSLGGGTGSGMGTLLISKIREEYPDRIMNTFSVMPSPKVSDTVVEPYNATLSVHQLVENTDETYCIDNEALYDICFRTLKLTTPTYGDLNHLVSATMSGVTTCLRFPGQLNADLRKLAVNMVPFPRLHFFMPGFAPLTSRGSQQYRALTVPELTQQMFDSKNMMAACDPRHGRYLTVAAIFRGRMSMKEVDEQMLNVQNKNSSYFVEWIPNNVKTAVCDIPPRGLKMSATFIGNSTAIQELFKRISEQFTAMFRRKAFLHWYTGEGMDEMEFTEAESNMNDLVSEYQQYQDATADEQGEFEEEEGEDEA
Tubulin, sequence (Q862F3 whole entry): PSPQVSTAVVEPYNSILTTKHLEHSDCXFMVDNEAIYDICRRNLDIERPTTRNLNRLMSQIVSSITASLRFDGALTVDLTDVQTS

Which IC50 [1] does the source give for `CC(=O)O[C@H]1C(=O)[C@@]2(C)[C@H]([C@H](OC(=O)c3ccccc3)[C@]3(O)C[C@H](OC(=O)[C@H](O)[C@@H](NC(=O)c4ccccc4)c4ccccc4)C(C)=C1C3(C)C)[C@]1(OC(C)=O)CO[C@@H]1C[C@@H]2O` [PACLITAXEL] here?
Its IC50 is 8.4 nM.

Which Activity [2] does the source give for `COc1ccc2nc(C(=O)c3cc(OC)c(OC)c(OC)c3O)ccc2c1` here?
The Activity was “Active”.

What about the IC50 [3] of the same compound?
The IC50 was 230 nM.

What about the IC50 [4] of the same compound?
Its IC50 is 1160 nM.

What does the source list for `COc1cc(C(=O)c2ccc3ncccc3c2)c(O)c(OC)c1OC`?
Activity [2]: Active; IC50 [3]: 22.9 nM; IC50 [4]: 116 nM

Which results are given for `COc1ccc(/C=C\c2cc(OC)c(OC)c(OC)c2)cc1O` [COMBRETASTATIN A4]?
viability at 4 h, 0.02 µM [5]: 94%; Activity [6]: 0%; IC50 [4]: 3.2 nM

Which IC50 [1] does the source give for `CC[C@]1(O)C[C@H]2CN(CCc3c([nH]c4ccccc34)[C@@](C(=O)OC)(c3cc4c(cc3OC)N(C=O)[C@H]3[C@@](O)(C(=O)OC)[C@H](OC(C)=O)[C@]5(CC)C=CCN6CC[C@]43[C@@H]65)C2)C1` [VINCRISTINE] here?
Its IC50 is 1.5 nM.

What about the IC50 [7] of the same compound?
The IC50 was 2.1 nM.

With `COc1cc([C@@H]2c3cc4c(cc3[C@@H](O[C@@H]3O[C@@H]5CO[C@@H](C)O[C@H]5[C@H](O)[C@H]3O)[C@H]3COC(=O)[C@H]23)OCO4)cc(OC)c1O` [ETOPOSIDE] as the compound, how does the IC50 [7] read?
The IC50 was 3500 nM.

For `COc1ccc2c(C(=O)c3cc(OC)c(OC)c(OC)c3O)c[nH]c2c1`, which IC50 [1] is on record?
Its IC50 is 8.5 nM.

And the viability at 4 h, 0.5 µM [8]?
Its viability at 4 h, 0.5 µM is 93%.

What about the viability at 4 h, 0.05 µM [9] of the same compound?
The viability at 4 h, 0.05 µM was 100%.

What about the viability at 4 h, 2.5 µM [10] of the same compound?
The viability at 4 h, 2.5 µM was 99%.

What about the Activity [2] of the same compound?
Its Activity is “Active”.

What about the IC50 [11] of the same compound?
The IC50 was 9.5 nM.

And the Activity [12]?
The Activity was 0%.

What about the inhibition [13] of the same compound?
The inhibition was 87.2%.

What about the IC50 [14] of the same compound?
The IC50 was 4.2 µM.

And the IC50 [3]?
The IC50 was 8.8 nM.

And the Activity [15]?
Its Activity is 0%.

And the IC50 [7]?
Its IC50 is 5.8 nM.

What about the Activity [16] of the same compound?
The Activity was 49%.

What about the viability at 4 h, 0.1 µM [17] of the same compound?
Its viability at 4 h, 0.1 µM is 96%.

And the Activity [18]?
Its Activity is 72%.

What about the IC50 [4] of the same compound?
The IC50 was 10.5 nM.

Which Activity [2] does the source give for `COc1cc(C(=O)c2ccnc3ccccc23)c(O)c(OC)c1OC` here?
Its Activity is “Active”.

And the IC50 [3]?
Its IC50 is 7700 nM.

And the IC50 [4]?
The IC50 was 5960 nM.

Which IC50 [1] does the source give for `COc1cc(C(=O)c2cccc3c2ccn3C)c(O)c(OC)c1OC` here?
The IC50 was 40 nM.

What about the Activity [2] of the same compound?
Its Activity is “Active”.

What about the IC50 [11] of the same compound?
The IC50 was 42.8 nM.

And the inhibition [13]?
Its inhibition is 66.3%.

What about the IC50 [14] of the same compound?
Its IC50 is 8.2 µM.

What about the IC50 [3] of the same compound?
Its IC50 is 57.3 nM.

And the IC50 [7]?
Its IC50 is 32.6 nM.

And the IC50 [4]?
Its IC50 is 55.4 nM.

For `COc1cc(C(=O)c2ccc3c(ccn3C)c2)c(O)c(OC)c1OC`, which IC50 [1] is on record?
The IC50 was 18.2 nM.

And the viability at 4 h, 0.5 µM [8]?
The viability at 4 h, 0.5 µM was 97%.

What about the viability at 4 h, 0.05 µM [9] of the same compound?
The viability at 4 h, 0.05 µM was 95%.

And the viability at 4 h, 2.5 µM [10]?
Its viability at 4 h, 2.5 µM is 95%.

And the Activity [2]?
Its Activity is “Active”.

What about the IC50 [11] of the same compound?
Its IC50 is 20.8 nM.

What about the Activity [12] of the same compound?
The Activity was 41%.

What about the inhibition [13] of the same compound?
Its inhibition is 84.4%.

And the IC50 [14]?
Its IC50 is 4.9 µM.

And the IC50 [3]?
Its IC50 is 33 nM.

What about the Activity [15] of the same compound?
Its Activity is 0%.

And the IC50 [7]?
The IC50 was 16.2 nM.

And the Activity [16]?
The Activity was 53%.

And the viability at 4 h, 0.1 µM [17]?
Its viability at 4 h, 0.1 µM is 94%.

And the Activity [18]?
Its Activity is 72%.

What about the IC50 [4] of the same compound?
The IC50 was 93.7 nM.
